In the data set the test system is black willow (Salix nigra) roots. Description: Foam application to exposed roots of greenhouse-grown black willow cuttings; roots evaluated 25 days after treatment. The conditions noted are these: for Dry Weight of Roots, Dead Roots / Dry Weight of Roots, Live Roots: 20 min contact, twenty-five days following treatment, average of 24 willow cuttings; for Effect on treated roots (visual inspection, living roots / root growth): foam application, twenty-five days following treatment (FIG. 3, FIG. 4). The procedure: Individual branch cuttings of black willow (Salix nigra) were collected and grown in containers according to methods described in Groninger and Bohanek 2000, J. of Plant Growth Regulation 19:453-456. The cuttings were rooted in 262 ml tubes containing a 1:1 mixture of peat moss and white washed play sand. Tubes were perforated with a 2 cm^2 hole in the bottom and four 1.4 cm^2 holes on the side, 2 cm from the bottom of the tube. Cuttings were grown under greenhouse conditions in racks containing 12 tubes each with one cutting per tube. To facilitate root growth outside of the tube, the racks were placed in aluminum pans and positioned so that the base of each tube was suspended in dilute nutrient solution. Water was added as needed and a 20-20-20-NPK fertilizer was provided at a rate of 0.04 g/cutting per week into the pan. Root growth was further facilitated by maintaining the root zone in darkness by covering gaps between the edge of the rack and the pan with aluminum foil. When cuttings had been growing for approximately four months, intermingling exposed roots from adjacent cuttings were separated from one another and fine roots were allowed to regrow. Treatment were initiated when shoots averaged 0.8 meters in height with healthy foliage. At the time of treatment, each cutting produced profuse growth of roots 0.3 cm in diameter or less.
Roots of the cuttings were exposed to paraquat, diquat, Rootex, a rooting hormone, and a control. Paraquat (Gramoxone Max®, Syngenta, containing 43.8% paraquat) was applied to roots cuttings at two rates, 2.0 and 4.0 ml/L. Diquat (Reward®, Syngenta, containing 37.3% diquat) was applied at 4.0 ml/L. Each treatment of the four treatments were applied in 1.0 L water solution with a 2% alkyl polyglycoside-based foaming agent, AU-340 (Adjuvants Unlimited, Tulsa, Okla.) using a foam generator to simulate a standard application of chemicals in controlling tree roots in sewer lines. Roots were placed in contact with foam solution for 20 minutes. […] Upon removal of foam solution, cuttings and their exposed roots were returned to pretreatment nutrient conditions with residual foam permitted to maintain contact with exposed roots.
Evaluation of roots was conducted twenty-five days following treatment. Roots were visually inspected, harvested, separated into living and dead groups, dried and weighed for dry mass determination.

“Also recorded” adds a separate entry of the source.

As to `c1cc[n+]2c(c1)-c1cccc[n+]1CC2` [Diquat], the “Effect on treated roots (visual inspection, living roots / root growth)” value is listed as “No living roots”. Under “4.0 ml/L of stock in foam”, the “Dry Weight of Roots, Dead Roots” value was determined as 0.9 g/willow cutting and the “Dry Weight of Roots, Live Roots” value worked out at 0 g/willow cutting.
On to `C[n+]1ccc(-c2cc[n+](C)cc2)cc1` [Paraquat, 1,1′-dimethyl-4,4′-bipyridium ion], for which the “Effect on treated roots (visual inspection, living roots / root growth)” value was “destruction of the test roots; also recorded: No living roots”. Besides, for the setting “2.0 ml/L of stock in foam”, the “Dry Weight of Roots, Dead Roots” value was 0.7 g/willow cutting and the “Dry Weight of Roots, Live Roots” value is given as 0 g/willow cutting. Also, for the setting “4.0 ml/L of stock in foam”, the “Dry Weight of Roots, Dead Roots” value was 2.2 g/willow cutting and the “Dry Weight of Roots, Live Roots” value came to 0 g/willow cutting. Moreover, the “Damage to the upper portion of the trees” value (green house testing, applied as a dense foam to tree roots) is on record as “without causing damage”.

For the origin of these results see patent US20040121912A1, “Method for controlling root growth using paraquat” (priority 2002, published 2004).
